# Measurements taken from patent US6737383B1, “Herbicidal oxadiazolidines” (priority 1999, dated 2004).
# Experiments:
# bedstraw = experiment: Test B pre/postemergence bedstraw; format: in vivo, Galium aparine; conditions: Preemergence
# Procedure, shortened: (§1)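 Herbicidal effect was estimated by eye on a ten-point control scale after plants spent twelve to sixteen days in a greenhouse following soil or foliar treatment. Foliar sprays targeted plants at one to four leaves; all doses were formulated in a non-phytotoxic solvent with surfactant.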
# blackgrass = experiment: Test B pre/postemergence blackgrass; format: in vivo, Alopecurus myosuroides
# Procedure, shortened: as §1
# surinam grass = experiment: Test B pre/postemergence surinam grass; format: in vivo, Brachiaria decumbens
# Procedure, shortened: as §1
# cocklebur = experiment: Test B pre/postemergence cocklebur; format: in vivo, Xanthium strumarium
# Procedure, shortened: as §1
# corn = experiment: Test B pre/postemergence corn; format: in vivo, Zea mays
# Procedure, shortened: as §1
# crabgrass = experiment: Test B pre/postemergence crabgrass; format: in vivo, Digitaria sanguinalis
# Procedure, shortened: as §1
# giant foxtail = experiment: Test B pre/postemergence giant foxtail; format: in vivo, Setaria faberii
# Procedure, shortened: as §1
# morningglory = experiment: Test B pre/postemergence morningglory; format: in vivo, Ipomoea hederacea
# Procedure, shortened: as §1
# pigweed = experiment: Test B pre/postemergence pigweed; format: in vivo, Amaranthus retroflexus
# Procedure, shortened: as §1
# rape = experiment: Test B pre/postemergence rape; format: in vivo, Brassica napus
# Procedure, shortened: as §1
# soybean = experiment: Test B pre/postemergence soybean; format: in vivo, Glycine max
# Procedure, shortened: as §1
# sugar beet = experiment: Test B pre/postemergence sugar beet; format: in vivo, Beta vulgaris
# Procedure, shortened: as §1
# velvetleaf = experiment: Test B pre/postemergence velvetleaf; format: in vivo, Abutilon theophrasti
# Procedure, shortened: as §1
# wheat = experiment: Test B pre/postemergence wheat; format: in vivo, Triticum aestivum
# Procedure, shortened: as §1
# wild oat = experiment: Test B pre/postemergence wild oat; format: in vivo, Avena fatua
# Procedure, shortened: as §1
# purple nutsedge = experiment: Test B pre/postemergence purple nutsedge; format: in vivo, Cyperus rotundus
# Procedure, shortened: as §1
# [1] = Postemergence, Rate 62 g/ha, scale of 0 to 10, 0 is no effect, 10 is complete control
# [2] = Postemergence, Rate 125 g/ha, scale 0 to 10, 0 is no effect, 10 is complete control
# [3] = Postemergence, Rate 500 g/ha, scale 0 to 10, 0 is no effect, 10 is complete control
# [4] = Preemergence, Rate 125 g/ha, scale 0 to 10, 0 is no effect, 10 is complete control
# [5] = Preemergence, Rate 500 g/ha, scale of 0 to 10 where 0 is no effect and 10 is complete control
# [6] = Rate 250 g/ha, Postemergence, scale of 0 to 10 where 0 is no effect and 10 is complete control
# [7] = Preemergence, Rate 62 g/ha, scale 0 to 10 (0 no effect, 10 complete control)
compound,measurement,setting,value
COCCOCn1c(=O)on(C(=O)N(c2ccc(Cl)cc2)C(C)C)c1=O [Compound 535],Bedstraw plant response rating,"bedstraw; Rate 62 g/ha, scale 0 to 10 (0 no effect, 10 complete control)",0
same,Bedstraw plant response rating,"bedstraw; Rate 125 g/ha, scale 0 to 10, 0 is no effect, 10 is complete control",0
same,Bedstraw plant response rating,"bedstraw; Rate 500 g/ha, scale of 0 to 10 where 0 is no effect and 10 is complete control",0
same,Blackgrass plant response rating,blackgrass; [1],0
same,Blackgrass plant response rating,blackgrass; [2],4
same,"Plant response rating, Blackgrass",blackgrass; [3],8
same,Blackgrass plant response rating,blackgrass; [4],0
same,Blackgrass plant response rating (0 to 10 scale),"blackgrass; Preemergence, Rate 250 g/ha",0
same,Blackgrass plant response rating,blackgrass; [5],0
same,"Plant response rating, Blackgrass",blackgrass; [6],7
same,B. signalgrass plant response rating,surinam grass; [1],0
same,B. signalgrass plant response rating,surinam grass; [2],0
same,"Plant response rating, B. signalgrass",surinam grass; [3],3
same,B. signalgrass plant response rating,surinam grass; [4],0
same,"B. signalgrass plant response rating (0 to 10 scale, 0 is no effect, 10 is complete control)","surinam grass; Preemergence, Rate 250 g/ha",0
same,B. signalgrass plant response rating,surinam grass; [5],0
same,"Plant response rating, B. signalgrass",surinam grass; [6],0
same,Cocklebur plant response rating,cocklebur; [1],0
same,Cocklebur plant response rating,cocklebur; [2],0
same,"Plant response rating, Cocklebur",cocklebur; [3],0
same,Cocklebur plant response rating,cocklebur; [7],0
same,Cocklebur plant response rating,cocklebur; [4],0
same,Cocklebur plant response rating (0 to 10 scale),"cocklebur; Preemergence, Rate 250 g/ha",0
same,Cocklebur plant response rating,cocklebur; [5],0
same,"Plant response rating, Cocklebur",cocklebur; [6],0
same,Corn plant response rating,corn; [1],0
same,Corn plant response rating,corn; [2],0
same,"Plant response rating, Corn",corn; [3],0
same,Corn plant response rating,corn; [7],0
same,Corn plant response rating,corn; [4],0
same,Corn plant response rating (0 to 10 scale),"corn; Preemergence, Rate 250 g/ha",0
same,Corn plant response rating,corn; [5],2
same,"Plant response rating, Corn",corn; [6],0
same,Crabgrass plant response rating,crabgrass; [1],5
same,"Plant response rating, Crabgrass",crabgrass; [3],6
same,Crabgrass plant response rating,crabgrass; [7],10
same,Crabgrass plant response rating,crabgrass; [4],10
same,Crabgrass plant response rating (0 to 10 scale),"crabgrass; Preemergence, Rate 250 g/ha",10
same,Crabgrass plant response rating,crabgrass; [5],10
same,"Plant response rating, Crabgrass",crabgrass; [6],5
same,Giant foxtail plant response rating,giant foxtail; [1],5
same,"Plant response rating, Giant foxtail",giant foxtail; [3],5
same,Giant foxtail plant response rating,giant foxtail; [7],10
same,Giant foxtail plant response rating,giant foxtail; [4],10
same,Giant foxtail plant response rating (0 to 10 scale),"giant foxtail; Preemergence, Rate 250 g/ha",10
same,Giant foxtail plant response rating,giant foxtail; [5],10
same,"Plant response rating, Giant foxtail",giant foxtail; [6],5
same,Morningglory plant response rating,morningglory; [1],4
same,Morningglory plant response rating,morningglory; [2],2
same,"Plant response rating, Morningglory",morningglory; [3],3
same,Morningglory plant response rating,morningglory; [7],0
same,Morningglory plant response rating,morningglory; [4],0
same,Morningglory plant response rating (0 to 10 scale),"morningglory; Preemergence, Rate 250 g/ha",0
same,Morningglory plant response rating,morningglory; [5],2
same,"Plant response rating, Morningglory",morningglory; [6],2
same,Redroot pigweed plant response rating,pigweed; [1],0
same,Redroot pigweed plant response rating,pigweed; [2],0
same,"Plant response rating, Redroot pigweed",pigweed; [3],0
same,Redroot pigweed plant response rating,pigweed; [7],2
same,Redroot pigweed plant response rating,pigweed; [4],2
same,Redroot pigweed plant response rating (0 to 10 scale),"pigweed; Preemergence, Rate 250 g/ha",4
same,Redroot pigweed plant response rating,pigweed; [5],4
same,"Plant response rating, Redroot pigweed",pigweed; [6],0
same,Rape plant response rating,rape; [1],0
same,Rape plant response rating,rape; [2],0
same,"Plant response rating, Rape",rape; [3],0
same,Rape plant response rating,rape; [7],2
same,Rape plant response rating,rape; [4],2
same,Rape plant response rating (0 to 10 scale),"rape; Preemergence, Rate 250 g/ha",2
same,Rape plant response rating,rape; [5],3
same,"Plant response rating, Rape",rape; [6],0
same,Soybean plant response rating,soybean; [1],3
same,Soybean plant response rating,soybean; [2],6
same,"Plant response rating, Soybean",soybean; [3],8
same,Soybean plant response rating,soybean; [7],0
same,Soybean plant response rating,soybean; [4],0
same,Soybean plant response rating (0 to 10 scale),"soybean; Preemergence, Rate 250 g/ha",0
same,Soybean plant response rating,soybean; [5],0
same,"Plant response rating, Soybean",soybean; [6],6
same,Sugarbeets plant response rating,sugar beet; [1],0
same,Sugarbeets plant response rating,sugar beet; [2],0
same,"Plant response rating, Sugarbeets",sugar beet; [3],0
same,Sugarbeets plant response rating,sugar beet; [7],4
same,Sugarbeets plant response rating,sugar beet; [4],4
same,Sugarbeets plant response rating (0 to 10 scale),"sugar beet; Preemergence, Rate 250 g/ha",5
same,"Plant response rating, Sugarbeets",sugar beet; [6],0
same,Velvetleaf plant response rating,velvetleaf; [1],0
same,Velvetleaf plant response rating,velvetleaf; [2],0
same,"Plant response rating, Velvetleaf",velvetleaf; [3],2
same,Velvetleaf plant response rating,velvetleaf; [7],0
same,Velvetleaf plant response rating,velvetleaf; [4],0
same,Velvetleaf plant response rating (0 to 10 scale),"velvetleaf; Preemergence, Rate 250 g/ha",2
same,"Plant response rating, Velvetleaf",velvetleaf; [6],0
same,Wheat plant response rating,wheat; [1],0
same,Wheat plant response rating,wheat; [2],0
same,"Plant response rating, Wheat",wheat; [3],2
same,Wheat plant response rating,wheat; [7],0
same,Wheat plant response rating,wheat; [4],0
same,Wheat plant response rating (0 to 10 scale),"wheat; Preemergence, Rate 250 g/ha",0
same,Wheat plant response rating,wheat; [5],0
same,"Plant response rating, Wheat",wheat; [6],0
same,Wild oats plant response rating,wild oat; [1],0
same,Wild oats plant response rating,wild oat; [2],0
same,"Plant response rating, Wild oats",wild oat; [3],2
same,Wild oats plant response rating,wild oat; [7],0
same,Wild oats plant response rating,wild oat; [4],0
same,Wild oats plant response rating (0 to 10 scale),"wild oat; Preemergence, Rate 250 g/ha",0
same,Wild oats plant response rating,wild oat; [5],0
same,"Plant response rating, Wild oats",wild oat; [6],0
same,Nutsedge plant response rating,purple nutsedge; [1],0
same,Nutsedge plant response rating,purple nutsedge; [2],0
same,"Plant response rating, Nutsedge",purple nutsedge; [3],0
same,Nutsedge plant response rating,purple nutsedge; [7],0
same,Nutsedge plant response rating,purple nutsedge; [4],0
same,Nutsedge plant response rating (0 to 10 scale),"purple nutsedge; Preemergence, Rate 250 g/ha",0
same,Nutsedge plant response rating,purple nutsedge; [5],0
same,"Plant response rating, Nutsedge",purple nutsedge; [6],0
